Data reported in ChEMBL document CHEMBL4665643 (Bioorg Med Chem Lett, 2019).

Tests used:
[1] = biological target: Casein kinase I isoform alpha (Homo sapiens) (UniProt P48729); assay: Inhibition of recombinant human GST-tagged full length CK1alpha1 expressed in baculovirus expression system using Ser/Thr 11 as substrate at 0.1 uM incubated for 60 mins by Z'-Lyte assay relative to control
[2] = biological target: T1, cGMP-dependent protein kinase 2 (Homo sapiens) (UniProt Q13237); assay: Inhibition of recombinant human GST-tagged full length PKG2 expressed in baculovirus expression system using Ser/Thr 01 as substrate at 0.1 uM incubated for 60 mins by Z'-Lyte assay relative to control
T1 sequence (whole entry): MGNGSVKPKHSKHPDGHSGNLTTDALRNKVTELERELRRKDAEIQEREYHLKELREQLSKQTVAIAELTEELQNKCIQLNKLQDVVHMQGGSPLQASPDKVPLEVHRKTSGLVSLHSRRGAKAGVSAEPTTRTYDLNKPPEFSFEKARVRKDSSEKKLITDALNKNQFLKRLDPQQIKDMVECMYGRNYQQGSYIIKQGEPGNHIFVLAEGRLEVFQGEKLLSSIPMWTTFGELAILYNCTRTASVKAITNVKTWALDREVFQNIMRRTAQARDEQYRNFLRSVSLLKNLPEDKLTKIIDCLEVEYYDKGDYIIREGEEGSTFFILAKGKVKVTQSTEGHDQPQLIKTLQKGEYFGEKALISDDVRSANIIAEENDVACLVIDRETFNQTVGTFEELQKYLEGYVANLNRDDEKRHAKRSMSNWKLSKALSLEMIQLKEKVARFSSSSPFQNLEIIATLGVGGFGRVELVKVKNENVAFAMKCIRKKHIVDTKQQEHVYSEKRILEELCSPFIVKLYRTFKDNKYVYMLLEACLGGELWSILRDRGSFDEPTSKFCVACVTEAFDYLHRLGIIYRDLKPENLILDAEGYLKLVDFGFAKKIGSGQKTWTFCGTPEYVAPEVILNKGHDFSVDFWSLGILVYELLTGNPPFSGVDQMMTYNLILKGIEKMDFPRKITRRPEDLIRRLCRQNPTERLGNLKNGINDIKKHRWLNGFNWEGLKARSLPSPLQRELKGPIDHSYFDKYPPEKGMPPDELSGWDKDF

[3] = biological target: Mitogen-activated protein kinase 14 (Homo sapiens) (UniProt Q16539); assay: Inhibition of recombinant human GST-tagged full length p38 alpha expressed in Escherichia coli expression system using Ser/Thr 15 as substrate at 0.1 uM incubated for 60 mins by Z'-Lyte assay relative to control
Sequence of Mitogen-activated protein kinase 14 (Homo sapiens) (Q16539 whole entry): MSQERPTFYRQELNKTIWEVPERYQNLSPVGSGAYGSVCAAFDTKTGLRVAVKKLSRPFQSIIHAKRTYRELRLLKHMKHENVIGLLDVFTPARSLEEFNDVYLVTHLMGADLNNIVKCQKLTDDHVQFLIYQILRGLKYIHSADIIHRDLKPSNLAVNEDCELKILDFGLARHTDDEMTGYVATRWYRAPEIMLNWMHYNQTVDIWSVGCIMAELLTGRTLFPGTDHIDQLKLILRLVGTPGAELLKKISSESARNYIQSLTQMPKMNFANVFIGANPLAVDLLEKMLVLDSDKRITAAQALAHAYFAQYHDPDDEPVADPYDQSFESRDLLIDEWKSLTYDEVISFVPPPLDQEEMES

in vitro = conditions: dog, MDCK
Description: Efflux ratio of apparent permeability basolateral to apical over apical to basolateral side in MDCK cells at 10 uM incubated upto 180 mins by LC/MS-MS analysis

[4] = biological target: T2, Interleukin-1 receptor-associated kinase 4 (Homo sapiens) (UniProt Q9NWZ3); assay: Inhibition of recombinant human His-tagged full length IRAK4 expressed in baculovirus expression system using Ser/Thr 07 as substrate at 0.1 uM incubated for 60 mins by Z'-Lyte assay relative to control
T2 sequence (whole entry): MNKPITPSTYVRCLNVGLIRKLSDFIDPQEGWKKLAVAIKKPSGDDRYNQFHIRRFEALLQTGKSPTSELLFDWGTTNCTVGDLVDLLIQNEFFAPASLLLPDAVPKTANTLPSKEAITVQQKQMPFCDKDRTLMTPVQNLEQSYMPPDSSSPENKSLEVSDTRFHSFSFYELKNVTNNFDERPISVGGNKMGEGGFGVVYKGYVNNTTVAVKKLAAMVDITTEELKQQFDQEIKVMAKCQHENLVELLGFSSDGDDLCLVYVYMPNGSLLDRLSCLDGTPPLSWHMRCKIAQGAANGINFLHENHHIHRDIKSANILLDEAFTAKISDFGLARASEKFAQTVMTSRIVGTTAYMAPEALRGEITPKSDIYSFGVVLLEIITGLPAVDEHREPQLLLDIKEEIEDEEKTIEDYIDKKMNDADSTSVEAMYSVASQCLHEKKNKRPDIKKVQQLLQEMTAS

[5] = biological target: Fibroblast growth factor receptor 4 (Homo sapiens) (UniProt P22455); assay: Inhibition of recombinant human His-tagged FGFR4 ([…]) expressed in baculovirus expression system using Tyr 04 as substrate at 0.1 uM incubated for 60 mins by Z'-Lyte assay relative to control
Sequence of Fibroblast growth factor receptor 4 (Homo sapiens) (P22455 22-802 limits assumed): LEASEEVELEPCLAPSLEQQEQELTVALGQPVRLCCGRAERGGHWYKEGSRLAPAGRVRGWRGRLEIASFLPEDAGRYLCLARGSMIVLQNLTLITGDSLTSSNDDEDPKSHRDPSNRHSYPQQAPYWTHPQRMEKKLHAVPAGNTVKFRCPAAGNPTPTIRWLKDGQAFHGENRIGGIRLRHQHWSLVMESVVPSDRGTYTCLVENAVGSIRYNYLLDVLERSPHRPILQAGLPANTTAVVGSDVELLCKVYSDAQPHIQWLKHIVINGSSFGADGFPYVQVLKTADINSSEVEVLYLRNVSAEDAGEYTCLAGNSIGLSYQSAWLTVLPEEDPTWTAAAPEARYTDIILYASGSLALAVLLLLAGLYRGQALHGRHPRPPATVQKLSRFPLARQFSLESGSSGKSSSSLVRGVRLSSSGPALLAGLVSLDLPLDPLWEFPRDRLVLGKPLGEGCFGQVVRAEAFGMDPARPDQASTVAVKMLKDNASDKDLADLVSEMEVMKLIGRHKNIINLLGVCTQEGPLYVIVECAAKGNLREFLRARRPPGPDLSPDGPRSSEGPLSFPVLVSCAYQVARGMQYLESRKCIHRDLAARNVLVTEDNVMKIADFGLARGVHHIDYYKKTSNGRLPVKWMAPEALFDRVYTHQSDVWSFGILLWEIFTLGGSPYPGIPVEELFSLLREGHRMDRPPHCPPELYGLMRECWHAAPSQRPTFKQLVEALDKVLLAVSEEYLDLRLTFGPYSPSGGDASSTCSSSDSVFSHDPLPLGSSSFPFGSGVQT

[6] = biological target: Glycogen synthase kinase-3 beta (Homo sapiens) (UniProt P49841); assay: Inhibition of recombinant human N-terminal GST-tagged full length GSK3beta expressed in baculovirus expression system using Ser/Thr 09 as substrate at 0.1 uM incubated for 60 mins by Z'-Lyte assay relative to control
Sequence of Glycogen synthase kinase-3 beta (Homo sapiens) (P49841 whole entry, looked up, the tested form may be a part): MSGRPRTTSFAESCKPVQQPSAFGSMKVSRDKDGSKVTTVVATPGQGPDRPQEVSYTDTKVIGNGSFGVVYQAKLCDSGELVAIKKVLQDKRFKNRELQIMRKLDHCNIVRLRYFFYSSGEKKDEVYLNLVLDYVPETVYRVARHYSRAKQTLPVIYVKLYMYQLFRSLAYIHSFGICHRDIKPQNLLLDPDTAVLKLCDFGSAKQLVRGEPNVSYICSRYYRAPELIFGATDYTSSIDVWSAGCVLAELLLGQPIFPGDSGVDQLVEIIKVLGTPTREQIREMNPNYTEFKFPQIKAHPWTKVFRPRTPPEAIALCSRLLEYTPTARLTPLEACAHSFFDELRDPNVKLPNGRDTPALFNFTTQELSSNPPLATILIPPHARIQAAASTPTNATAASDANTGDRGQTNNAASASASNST

[7] = biological target: T3, Tyrosine-protein kinase JAK3 (Homo sapiens) (UniProt P52333); assay: Inhibition of recombinant human GST-tagged JAK3 (781 to 1124 residues) expressed in baculovirus expression system using Tyr 06 as substrate at 0.1 uM incubated for 60 mins by Z'-lyte assay relative to control
T3 sequence (whole entry): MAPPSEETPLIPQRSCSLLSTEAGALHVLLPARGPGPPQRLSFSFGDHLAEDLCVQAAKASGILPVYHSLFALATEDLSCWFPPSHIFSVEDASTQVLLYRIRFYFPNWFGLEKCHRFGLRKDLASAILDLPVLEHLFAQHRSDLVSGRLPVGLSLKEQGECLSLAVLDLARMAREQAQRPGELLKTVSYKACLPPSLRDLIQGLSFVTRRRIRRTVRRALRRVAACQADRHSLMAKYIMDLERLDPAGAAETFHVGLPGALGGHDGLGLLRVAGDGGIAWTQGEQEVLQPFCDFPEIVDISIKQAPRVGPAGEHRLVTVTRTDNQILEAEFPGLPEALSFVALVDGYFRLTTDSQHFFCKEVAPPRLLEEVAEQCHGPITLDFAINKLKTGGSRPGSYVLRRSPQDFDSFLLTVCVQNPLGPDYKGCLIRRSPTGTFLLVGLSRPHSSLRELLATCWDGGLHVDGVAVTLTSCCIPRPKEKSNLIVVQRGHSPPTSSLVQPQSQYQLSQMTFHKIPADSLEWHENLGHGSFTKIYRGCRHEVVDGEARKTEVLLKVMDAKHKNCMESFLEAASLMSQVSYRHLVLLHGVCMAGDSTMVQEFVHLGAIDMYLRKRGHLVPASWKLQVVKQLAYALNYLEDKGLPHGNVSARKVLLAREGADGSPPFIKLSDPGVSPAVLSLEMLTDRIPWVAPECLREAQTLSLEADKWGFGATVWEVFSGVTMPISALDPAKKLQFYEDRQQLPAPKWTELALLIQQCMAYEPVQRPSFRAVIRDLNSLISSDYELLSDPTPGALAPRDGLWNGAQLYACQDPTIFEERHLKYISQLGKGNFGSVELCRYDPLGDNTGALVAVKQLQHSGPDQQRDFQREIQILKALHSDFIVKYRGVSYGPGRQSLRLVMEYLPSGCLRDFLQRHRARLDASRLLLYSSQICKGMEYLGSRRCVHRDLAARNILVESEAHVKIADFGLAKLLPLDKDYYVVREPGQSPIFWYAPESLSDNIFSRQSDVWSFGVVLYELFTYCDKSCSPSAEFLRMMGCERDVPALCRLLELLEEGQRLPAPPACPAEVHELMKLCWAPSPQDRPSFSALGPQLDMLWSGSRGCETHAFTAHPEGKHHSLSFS

Sequence of Casein kinase I isoform alpha (Homo sapiens) (P48729 2-337 limits assumed): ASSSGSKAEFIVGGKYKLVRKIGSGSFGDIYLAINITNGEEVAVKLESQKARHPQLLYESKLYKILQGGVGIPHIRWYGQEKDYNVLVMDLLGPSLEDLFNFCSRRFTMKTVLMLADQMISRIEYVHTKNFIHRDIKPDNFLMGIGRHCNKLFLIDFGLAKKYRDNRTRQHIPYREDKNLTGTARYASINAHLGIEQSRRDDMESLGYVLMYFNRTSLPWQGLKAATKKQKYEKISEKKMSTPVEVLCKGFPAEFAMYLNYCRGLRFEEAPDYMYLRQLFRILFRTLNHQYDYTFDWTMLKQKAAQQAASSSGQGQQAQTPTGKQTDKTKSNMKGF

SMILES | inhibition [1] [%] | inhibition [2] [%] | inhibition [3] [%] | efflux ratio at 3 h, 10 µM (in vitro) | inhibition [4] [%] | inhibition [5] [%] | inhibition [6] [%] | inhibition [7] [%]
Cn1cc(NC(=O)c2cnn3cccnc23)c(-c2cc(Cl)ccc2OC(F)F)n1 | 6 | 6 | 7 | 0.55 | -4 | 5 | -3 | 98
O=C(Nc1c[nH]nc1-c1cc(Cl)ccc1OC(F)F)c1cnn2cccnc12 | 10 | 2 | -4 | 1.1 | 0 | -1 | 7 | 95
O=C(Nc1c[nH]nc1-c1cc2ccccc2cc1OC(F)F)c1cnn2cccnc12 | -1 | 6 | 2 | 1.2 | 4 | 4 | 7 | 94
